Activity calls are given as the source filed them. The rule behind the calls is not given here.

The values below come from ChEMBL document CHEMBL4431319, “Design and synthesis of 4'-O-alkylamino-tethered-benzylideneindolin-2-ones as potent cytotoxic and apoptosis inducing agents” (Bioorg Med Chem Lett, 2016).

Test [1] concerns A549. The test is described as follows: Cytotoxicity against human A549 cells after 48 hrs by MTT assay. The format is functional, cell-based. Particulars: A549, 48 h. In general terms: Tetrazolium assays rely on reduction of a dye to a coloured formazan, in cell work by metabolically active cells.
Test [2] concerns DU-145. The test is described as follows: Cytotoxicity against human DU145 cells after 48 hrs by MTT assay. The format is functional, cell-based. To be noted: DU-145, 48 h.
For test [3], the system named is BT-549. The test can be described thus: Cytotoxicity against human BT549 cells after 48 hrs by MTT assay. Type of test: functional, cell-based. To be noted: BT-549, 48 h.
Test [4] relates to MDA-MB-231. The test can be described thus: Cytotoxicity against human MDA-MB-231 cells after 48 hrs by MTT assay. Particulars: MDA-MB-231, 48 h. The format is functional, cell-based.
In test [5] the test system is MCF-10A. The test is described as follows: Cytotoxicity against human MCF10A cells after 48 hrs by MTT assay. The format is cell-based.
For test [6], the system named is MDA-MB-231. The test can be described thus: Induction of nuclear shrinkage in human MDA-MB-231 cells at IC50 after 24 to 48 hrs by phase contrast microscopic analysis. Type of test: functional, cell-based.
For test [7], the system named is MDA-MB-231. The test can be described thus: Induction of detachment of human MDA-MB-231 cells at compound IC50 after 24 to 48 hrs by phase contrast microscopic analysis. The format is functional, cell-based.
Test [8] relates to MDA-MB-231. The test can be described thus: Antimigratory activity in human MDA-MB-231 cells at compound IC50 after 24 to 48 hrs by wound healing assay relative to control. Type of test: functional, cell-based.
The subject of test [9] is MDA-MB-231. The test can be described thus: Disruption of F-actin-mediated stress fiber formation around nucleus in human MDA-MB-231 cells at compound IC50 after 12 hrs by rhodamine-phalloidin/[…] staining-based confocal microscopic analysis. The format is functional, cell-based.
In test [10] the test system is MDA-MB-231. The test can be described thus: Induction of apoptosis in human MDA-MB-231 cells assessed as fragmented nuclei at compound IC50 after 24 hrs by […] staining-based fluorescence microscopic analysis. The format is functional, cell-based.
Test [11] concerns MDA-MB-231. The test is described as follows: Induction of apoptosis in human MDA-MB-231 cells assessed as chromatin condensation at compound IC50 after 24 hrs by […] staining-based fluorescence microscopic analysis. The format is functional, cell-based.
Test [12] concerns MDA-MB-231. The test can be described thus: Induction of apoptosis in human MDA-MB-231 cells assessed as appearance of horseshoe shaped nuclei at compound IC50 after 24 hrs by […] staining-based fluorescence microscopic analysis. Type of test: functional, cell-based.
For test [13], the system named is MDA-MB-231. The test can be described thus: Disruption of mitochondrial membrane potential in human MDA-MB-231 cells at compound IC50 after 24 hrs by rhodamine 123 staining-based spectrofluorometric analysis. Type of test: functional.
In test [14] the test system is MDA-MB-231. The test can be described thus: Induction of ROS generation in human MDA-MB-231 cells at compound IC50 after 24 hrs by DCFDA staining-based spectrofluorometric analysis relative to control. The format is functional, cell-based.
The subject of test [15] is MDA-MB-231. The test is described as follows: Induction of apoptosis in human MDA-MB-231 cells assessed as pyknosis at compound IC50 after 24 hrs by […] staining-based fluorescence microscopic analysis. The format is functional, cell-based.
The test system of test [16] is MDA-MB-231. The test is described as follows: Induction of cell cycle arrest in human MDA-MB-231 cells assessed as accumulation at G0/G1 phase at 2.5 uM after 24 hrs by propidium iodide staining based flow cytometry (reference value: 55.02%). Type of test: functional.
Test [17] concerns MDA-MB-231. The test can be described thus: Induction of cell cycle arrest in human MDA-MB-231 cells assessed as accumulation at […] at 2.5 uM after 24 hrs by propidium iodide staining based flow cytometry (reference value: 26.12%). The format is functional. Background: A flow cytometer gives signals particle by particle.
Test [18] concerns MDA-MB-231. The test can be described thus: Induction of cell cycle arrest in human MDA-MB-231 cells assessed as accumulation at G2/M phase at 2.5 uM after 24 hrs by propidium iodide staining based flow cytometry (reference value: 18.86%). Type of test: functional.
Test [19] has as its system MDA-MB-231. The test is described as follows: Induction of cell cycle arrest in human MDA-MB-231 cells assessed as accumulation at G0/G1 phase at 5 uM after 24 hrs by propidium iodide staining based flow cytometry (reference value: 55.02%). Type of test: functional.
The test system of test [20] is MDA-MB-231. The test is described as follows: Induction of cell cycle arrest in human MDA-MB-231 cells assessed as accumulation at […] at 5 uM after 24 hrs by propidium iodide staining based flow cytometry (reference value: 26.12%). Type of test: functional.
In test [21] the test system is MDA-MB-231. The test can be described thus: Induction of cell cycle arrest in human MDA-MB-231 cells assessed as accumulation at G2/M phase at 5 uM after 24 hrs by propidium iodide staining based flow cytometry (reference value: 18.86%). The format is functional.
Test [22] has as its system MDA-MB-231. The test is described as follows: Induction of cell cycle arrest in human MDA-MB-231 cells assessed as accumulation at G0/G1 phase at 10 uM after 24 hrs by propidium iodide staining based flow cytometry (reference value: 55.02%). Type of test: functional.
Test [23] has as its system MDA-MB-231. The test can be described thus: Induction of cell cycle arrest in human MDA-MB-231 cells assessed as accumulation at […] at 10 uM after 24 hrs by propidium iodide staining based flow cytometry (reference value: 26.12%). The format is functional.
The subject of test [24] is MDA-MB-231. The test can be described thus: Induction of cell cycle arrest in human MDA-MB-231 cells assessed as accumulation at G2/M phase at 10 uM after 24 hrs by propidium iodide staining based flow cytometry (reference value: 18.86%). The format is functional.

With `COc1cc(/C=C2\C(=O)Nc3ccc(Cl)cc32)ccc1OCCCN1CCOCC1`, the IC50 in [1] was 5.5 µM; in test [2], 2.91 µM; in test [3] it was 2.79 µM; in test [4], 2.51 µM; in test [5], more than 100 µM.

Take `COc1cc(/C=C2\C(=O)Nc3ccccc32)ccc1OCCN1CCOCC1`: the IC50 in test [1], in test [2], in test [3] and in [4] was more than 20 µM in each case.

For `COc1cc(/C=C2\C(=O)Nc3ccc(Cl)cc32)ccc1OCCCN1CC(C)OC(C)C1` (configuration not stated), the IC50 in [1] is 6.25 µM; in [2], 2.71 µM; in test [3], 2.77 µM; in [4], 1.99 µM; in test [5] it was 54.6 µM. For the same molecule, the outcome in test [6], in test [7], in test [8], in test [9], in [10] and in test [11] was Active. Besides, the result in test [12], in test [14] and in test [15] was Active. This molecule registered an Activity in test [13] of 28%.

Take `COc1cc(/C=C2\C(=O)Nc3ccccc32)ccc1OCCCN1CCN(c2ccccn2)CC1`: the IC50 in test [1], in test [2], in test [3] and in test [4] was more than 20 µM each time.

In the case of `COc1cc(/C=C2\C(=O)Nc3ccccc32)ccc1OCCCN1CCN(c2ncccc2C(F)(F)F)CC1`, the IC50 in test [1], in [2], in test [3] and in test [4] was more than 20 µM in each case.

On to `COc1cc(/C=C2\C(=O)Nc3ccc(Cl)cc32)ccc1OCCCN1CCN(c2ncccc2C(F)(F)F)CC1`, for which the half-inhibitory concentration (IC50) in [1] amounted to 9.53 µM; in test [2] it was 1.61 µM; in [3] it was 1.53 µM; in [4] it was 1.26 µM; in [5], 41.3 µM. The result in test [6], in test [7], in test [8], in [9], in test [10] and in test [11] was Active. The result in [12], in [14] and in test [15] was Active. In addition, the Activity in test [16] turned out to be 68.53%; in test [17] it was 17.93%; in [18] it was 13.45%; in test [19], 77.62%; in test [20], 11.74%; in test [21] it was 10.54%. Also, the Activity in test [22] turned out to be 84.74%; in test [23] it was 5.81%; in test [24], 9.42%; in [13], 40%.

Consider `COc1cc(/C=C2\C(=O)Nc3ccc(Cl)cc32)ccc1OCCCN1CCN(c2ccccn2)CC1`, for which the IC50 in test [1] is more than 20 µM; in test [2], more than 20 µM; in test [3], more than 20 µM; in test [4] it was 14.8 µM; in test [5], 51.3 µM.

On to `COc1cc(/C=C2\C(=O)Nc3ccc(C)cc32)ccc1OCCCN1CCOCC1`, for which the IC50 in test [1], in test [2], in [3] and in [4] was more than 20 µM each time.

With `COc1cc(/C=C2\C(=O)Nc3ccc(C)cc32)ccc1OCCCN1CCN(c2ncccc2C(F)(F)F)CC1`, the IC50 in test [1], in test [2], in test [3] and in test [4] was more than 20 µM each time.

On to `COc1cc(/C=C2\C(=O)Nc3ccc(C)cc32)ccc1OCCCN1CC(C)OC(C)C1` (configuration not stated), for which the IC50 in [1] is more than 20 µM; in [2], more than 20 µM; in test [3] it was more than 20 µM; in [4], 11.5 µM.

Consider `COc1cc(/C=C2\C(=O)Nc3ccccc32)ccc1OCCCN1CC(C)OC(C)C1` (configuration not stated), for which the concentration for half-maximal inhibition (IC50) in test [1] is more than 20 µM; in test [2], more than 20 µM; in test [3], more than 20 µM; in test [4], 15.2 µM.

For `COc1cc(/C=C2\C(=O)Nc3ccc(C)cc32)ccc1OCCN1CCOCC1`, the IC50 is more than 20 µM in test [1]; more than 20 µM in test [2]; more than 20 µM in test [3]; 9.5 µM in test [4]; more than 100 µM in test [5].

`COc1cc(/C=C2\C(=O)Nc3ccc(F)cc32)ccc1OCCN1CCOCC1`: the IC50 in test [1], in [2], in test [3] and in test [4] was more than 20 µM throughout.

`COc1cc(/C=C2\C(=O)Nc3ccccc32)ccc1OCCCN1CCc2ccccc21`: the IC50 in test [1], in test [2], in test [3] and in test [4] was more than 20 µM each time.

As for `COc1cc(/C=C2\C(=O)Nc3ccc(Cl)cc32)ccc1OCCN1CCOCC1`, the IC50 amounted to 14.7 µM in test [1]; 4.43 µM in [2]; 3.52 µM in test [3]; 3.31 µM in test [4]; 61.3 µM in test [5].

Take `COc1cc(/C=C2\C(=O)Nc3ccc(Cl)cc32)ccc1OCCCN1CCN(C)CC1`: the IC50 in test [1] came to 11.3 µM; in test [2] it was 2.15 µM; in test [3] it was 2.17 µM; in test [4] it was 1.75 µM; in test [5], 43.6 µM. In addition, the result in [6], in test [7], in [8], in test [9], in [10] and in test [11] was Active. For the same molecule, the outcome in test [12], in test [14] and in test [15] was Active. Also, the Activity in [13] amounted to 32%.

For the molecule `COc1cc(/C=C2\C(=O)Nc3ccc(Br)cc32)ccc1OCCN1CCOCC1`, the IC50 in test [1], in test [2], in test [3] and in test [4] was more than 20 µM in each case.

On to `COc1cc(/C=C2\C(=O)Nc3ccccc32)ccc1OCCCN1CCN(C)CC1`, for which the IC50 is 3.35 µM in test [1]; 2.23 µM in test [2]; 2.53 µM in test [3]; 2.07 µM in test [4]; more than 100 µM in [5].

Consider `COc1cc(/C=C2\C(=O)Nc3ccccc32)ccc1OCCCN1CCOCC1`, for which the IC50 in test [1], in [2], in test [3] and in [4] was more than 20 µM each time.

Regarding `COc1cc(/C=C2\C(=O)Nc3ccccc32)ccc1OCCCn1nc(C)cc1C`, the IC50 in test [1], in [2], in test [3] and in test [4] was more than 20 µM throughout.

In general, IC50 refers to the concentration needed to halve the response being measured.
